Assay results taken from patent US20180203025A1, “HDL THERAPY MARKERS” (Cerenis Therapeutics Holding SA, priority 2014, published 2018).

Columns and labels:
[1] = system: SREBP-2 mRNA in mouse macrophages (J774); test: SREBP-2 gene expression (real-time PCR) in J774 macrophages; format: cell-based; settings: Study P; 0.03 to 30 mM; 6 hours
Protocol: (§1) The mRNA regulation of those genes expressing ABCA1, ABCG1 and SR-BI is linked to nuclear proteins as LXR, SREBP1 and SREBP2. […] Gene expression was assayed using the protocols described in Sections 8.3.2 (RNA extraction); 8.3.4 (reverse transcription), and 8.3.5 (qPCR). SREBP-1, SREBP-2 and LXR gene expression levels were determined with Taqman probe (Mm01138344.m1, Mm01306292.m1, Mm00443451.m1 respectively) according to the manufacturer's protocol. The reference gene used is HPRT1 (Taqman probe: Mm00446968.m1).
(§2) This study used β-cyclodextrin to examine the effect of β-cyclodextrin on LXR, SREBP1 and SREBP2 mRNA expression in J774 macrophages. J774 were seeded on 6 well plates (300,000 cells/well). β-cyclodextrin (0.03, 0.1, 0.3, 1, 3, 10 and 30 mM) was added for 6 hours on the macrophages and the RNA were extracted with the RiboPure™ kit according to the manufacturer's protocol. Gene expression was assayed using the protocols described in Sections 8.3.2 (RNA extraction); 8.3.4 (reverse transcription), and 8.3.5 (qPCR). SREBP-1, SREBP-2 and LXR gene expression were determined with Taqman probe (Mm01138344.m1, Mm01306292.m1, Mm00443451.m1 respectively) according to the manufacturer's protocol. The reference gene used is HPRT1 (Taqman probe: Mm00446968.m1).

[2] = system: LXR mRNA in mouse macrophages (J774); test: LXR gene expression (real-time PCR) in J774 macrophages; format: cell-based; settings: Study P; 0.03 to 30 mM; 6 hours
Protocol: as §1, §2

[3] = system: ABCA1 mRNA in HepG2 (human hepatocytes); test: ABCA1 mRNA in HepG2 hepatocytes; format: cell-based; settings: Study K, 0.25, 25 and 250 μg/mL, 6 hours
Protocol: HepG2 (human hepatocytes) and Hepa1-6 (mouse hepatocytes) were seeded on 6 well plates (300,000 cells/well) in DMEM 10% FCS. […] Gene expression was assayed using the protocols described in Sections 8.3.2 (RNA extraction); 8.3.4 (reverse transcription), and 8.3.5 (qPCR). ABCA1 (Taqman probe Hs01059118.m1 and Mm00442646.m1 for respectively HepG2 and Hepa1-6) and SR-BI (Taqman probe Hs00969821.m1 and Mm00450234.m1 for respectively HepG2 and Hepa1-6) expression was determined according to the manufacturer's protocol. The reference gene used is HPRT1 (Taqman probe: Mm00446968.m1) for Hepa1-6 and GAPDH (Taqman probe: Hs03929097.g1) for HepG2 cells.

SR-BI in mouse liver = test: SR-BI protein content in mouse liver; format: in vivo; settings: 24 hours after the last injection; increasing concentrations
Protocol: This study examined the SR-BI and ABCA1 protein content in the liver 24 hours after the last injection of CER-001. A piece of liver (50 mg) was lysed in PBS (500 μL) by brief sonication. The sample was centrifuged (800×g for 10 minutes) and the pellet was discarded. The supernatant was centrifuged for 30 minutes at 16,000×g at 4° C. and the pellet was solubilized with PBS 1% Triton X100 (200 μL). 10 μg of solubilized pellet was loaded on SDS PAGE 10% and ABCA1 expression (ab7360—dilution 1/1000) or SR-BI expression (ab24603—dilution 1/1000) was quantified using imageJ® software.

[4] = Plasma cholesterol mobilization in apoE−/− mice; format: in vivo, mouse
Protocol: The formulation was injected in the retro-orbital vein (50 μL/mouse) of mice anaesthetized with isoflurane, once every 2 days for 8 injections. The dose administered was based on the mean of mice bodyweight in each cage. The compounds were injected at 10 AM every day. For blood sampling, mice fasted overnight were sampled once at the indicated dose: (1) at predose (at 9 AM) by retro-orbital withdrawal: 24 hours before the first injection/day of surgery; (2) at postdose (at 9 AM) by retro-orbital withdrawal: 24 hours after the last injection; and (3) at t=0 (9 AM) and the indicated time points after the 5th injection by caudal withdrawal. Immediately after collection, blood samples were kept at ca. +4° C. to avoid alteration of the blood sample. Blood specimens were centrifuged (800×g for 10 minutes at +4° C.) and plasma was saved for future analysis.
(§3) Add in each tube cholesterol standards (2 g/L): 0/0.625/1.25/1.875/2.5/3.75/5 μl. Centrifuge plasma samples at 12,000×g for 1 minute. Add 0.5 ml of the reconstituted buffer to each tube (standard and samples), vortex and incubate 5 minutes at 37° C. Transfer 150 μl from each tube to 2 different wells in a 96 well plate. Read absorbance at 500 nm.
as §3, with “of” for “of the”
This study examined the consequences of CER-001 administration on the lipoprotein profile in apoE^−/− mice fed with high fat diet. Blood was collected and analyzed at different time points after the 5th infusion. Plasma pre-dose (before the first injection) and plasma post-dose (24h after the last injection) were also compared. Plasma was analyzed for total and unesterified cholesterol and human ApoA-I contents.
Total and unesterified cholesterol concentrations were determined according to the procotols of Sections 9.2.5 and 9.2.6, respectively. Cholesterol ester concentrations are determined after subtracted unesterified cholesterol from total cholesterol. The mobilization of cholesterol was determined on 12 mice per group after the 5th administration (1 hour before injection; 1 h, 2h, 4h and 24h after injection). The animals were fasted overnight.

Compound	SREBP-2 mRNA [1]	LXR mRNA [2]	ABCA1 mRNA level [3]	liver SR-BI protein level (SR-BI in mouse liver)	plasma unesterified cholesterol concentration ([4]; 50 mg/kg, 2 and 4 hours after infusion)	post-dose total and unesterified cholesterol concentrations compared to HDL3 treated mice ([4]; 24h after the last injection)	doses increasing the cholesterol concentration in plasma compared to placebo ([4]; after 8 injections)	mobilization of unesterified cholesterol ([4]; after the 5th infusion)	total plasma cholesterol mobilization ([4]; after the 5th infusion)
OC[C@H]1O[C@@H]2O[C@H]3[C@H](O)[C@@H](O)[C@@H](O[C@H]4[C@H](O)[C@@H](O)[C@@H](O[C@H]5[C@H](O)[C@@H](O)[C@@H](O[C@H]6[C@H](O)[C@@H](O)[C@@H](O[C@H]7[C@H](O)[C@@H](O)[C@@H](O[C@H]8[C@H](O)[C@@H](O)[C@@H](O[C@H]1[C@H](O)[C@H]2O)O[C@@H]8CO)O[C@@H]7CO)O[C@@H]6CO)O[C@@H]5CO)O[C@@H]4CO)O[C@@H]3CO [β-cyclodextrin, reference compound]	increased for the lowest dose of β-cyclodextrin and reached a plateau	No significant changes	–	–	–	–	–	–	–
CER-001: engineered recombinant human apolipoprotein A-I HDL with sphingomyelin and DPPG; protein-to-phospholipid ratio 1:2.7, 97% Sph and 3% DPPG	–	–	No significant decrease	no significant changes	seemed to increase the plasma unesterified cholesterol concentration	two times higher	above 10 mg/kg	No significant changes	No significant changes
